Results reported in patent US9302999B2, “Substituted triazoles as herbicides” (E. I. DU PONT DE NEMOURS AND COMPANY, priority 2012, dated 2016).

Experiments:
Type in all cases: in vivo
[1] = test system: barnyardgrass (Echinochloa crus-galli); assay: Test A pre-/postemergence: barnyardgrass; conditions: for Barnyardgrass plant response rating: Postemergence; for Plant response rating, Barnyardgrass: Preemergence
Summary of the method: (§1)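 Whole-plant greenhouse assay in loam/sand. Preemergence directed soil spray plus simultaneous postemergence spray (one- to two-leaf stage, 2–10 cm). Rated visually ~10 days later, 0 = no effect, 100 = complete control.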

[2] = test system: crabgrass, large (large crabgrass, Digitaria sanguinalis); assay: Test A pre-/postemergence: crabgrass, large; conditions: for Crabgrass, Large plant response rating: Postemergence; for Plant response rating, Crabgrass, Large: Preemergence
Summary of the method: as §1

[3] = test system: foxtail, giant (giant foxtail, Setaria faberii); assay: Test A pre-/postemergence: foxtail, giant; conditions: for Foxtail, Giant plant response rating: Postemergence; for Plant response rating, Foxtail, Giant: Preemergence
Summary of the method: as §1

[4] = test system: morningglory (Ipomoea spp.); assay: Test A pre-/postemergence: morningglory; conditions: for Morningglory plant response rating: Postemergence; for Plant response rating, Morningglory: Preemergence
Summary of the method: as §1

[5] = test system: pigweed (Amaranthus retroflexus); assay: Test A pre-/postemergence: pigweed; conditions: for Pigweed plant response rating: Postemergence; for Plant response rating, Pigweed: Preemergence
Summary of the method: as §1

[6] = test system: velvetleaf (Abutilon theophrasti); assay: Test A pre-/postemergence: velvetleaf; conditions: for Velvetleaf plant response rating: Postemergence; for Plant response rating, Velvetleaf: Preemergence
Summary of the method: as §1

[7] = test system: wheat (Triticum aestivum); assay: Test A pre-/postemergence: wheat; conditions: for Wheat plant response rating: Postemergence; for Plant response rating, Wheat: Preemergence
Summary of the method: as §1

corn (Zea mays) = assay: Test A pre-/postemergence: corn; conditions: for Corn plant response rating: Postemergence; for Plant response rating, Corn: Preemergence
Summary of the method: as §1

rice (Oryza sativa) = assay: Test C flooded paddy test: rice; conditions: Flood (flooded paddy test), visual rating after 13 to 15 days, scale 0 to 100 (0 no effect, 100 complete control)
Summary of the method: (§2)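 2-leaf stage plants; pots flooded 3 cm above soil; compound applied into paddy water, depth maintained. Greenhouse 13–15 d. Visual rating vs controls, 0–100 (0 = no effect, 100 = complete control); dash = no result.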

[8] = test system: sedge, umbrella (small-flower umbrella sedge, Cyperus difformis); assay: Test C flooded paddy test: sedge, umbrella; conditions: Flood (flooded paddy test), visual rating after 13 to 15 days, scale 0 to 100 (0 no effect, 100 complete control)
Text: (§3) Plant species in the flooded paddy test consisted of rice (Oryza sativa), sedge, umbrella (small-flower umbrella sedge, Cyperus difformis), ducksalad (Heteranthera limosa) and barnyardgrass (Echinochloa crus-galli) grown to the 2-leaf stage for testing. At time of treatment, test pots were flooded to 3 cm above the soil surface, treated by application of test compounds directly to the paddy water, and then maintained at that water depth for the duration of the test.
(§4) Treated plants and controls were maintained in a greenhouse for 13 to 15 days, after which time all species were compared to controls and visually evaluated. Plant response ratings, summarized in Table C, are based on a scale of 0 to 100 where 0 is no effect and 100 is complete control. A dash (-) response means no test result.

[9] = test system: ducksalad (Heteranthera limosa); assay: Test C flooded paddy test: ducksalad; conditions: Flood (flooded paddy test), visual rating after 13 to 15 days, scale 0 to 100 (0 no effect, 100 complete control)
Summary of the method: as §2

[10] = test system: barnyardgrass (Echinochloa crus-galli); assay: Test C flooded paddy test: barnyardgrass; conditions: Flood (flooded paddy test), visual rating after 13 to 15 days, scale 0 to 100 (0 no effect, 100 complete control)
Text: as §3, §4

[11] = 125 g ai/ha, 0 to 100 scale, 0 is no effect, 100 is complete control
[12] = 500 g ai/ha, visual rating on 0 to 100 scale (0 no effect, 100 complete control), approximately ten days
[13] = 125 g ai/ha, 0 to 100 scale (0 no effect, 100 complete control)
[14] = 500 g ai/ha, 0 to 100 scale, 0 is no effect, 100 is complete control

SMILES	Barnyardgrass plant response rating [1, 11]	Barnyardgrass plant response rating [1, 12]	Plant response rating, Barnyardgrass [1, 13]	Plant response rating, Barnyardgrass [1, 14]	Crabgrass, Large plant response rating [2, 11]	Crabgrass, Large plant response rating [2, 12]	Plant response rating, Crabgrass, Large [2, 13]	Plant response rating, Crabgrass, Large [2, 14]	Foxtail, Giant plant response rating [3, 11]	Foxtail, Giant plant response rating [3, 12]	Plant response rating, Foxtail, Giant [3, 13]	Plant response rating, Foxtail, Giant [3, 14]	Morningglory plant response rating [4, 11]	Morningglory plant response rating [4, 12]	Plant response rating, Morningglory [4, 13]	Plant response rating, Morningglory [4, 14]	Pigweed plant response rating [5, 11]	Pigweed plant response rating [5, 12]	Plant response rating, Pigweed [5, 13]	Plant response rating, Pigweed [5, 14]	also measured
Cc1nn(-c2ccc(C(F)(F)F)cc2)nc1Cn1cc(C(F)(F)F)nc1Cl [Compound 9]	50	60	30	70	60	70	90	100	50	70	80	90	70	100	50	60	90	100	90	100	Velvetleaf plant response rating [6, 11]: 60; Velvetleaf plant response rating [6, 12]: 80; Plant response rating, Velvetleaf [6, 13]: 30; Plant response rating, Velvetleaf [6, 14]: 50; Wheat plant response rating [7, 11]: 0; Wheat plant response rating [7, 12]: 20; Plant response rating, Wheat [7, 13]: 0; Plant response rating, Wheat [7, 14]: 0; Corn plant response rating (corn (Zea mays); [11]): 20; Corn plant response rating (corn (Zea mays); [12]): 30; Plant response rating, Corn (corn (Zea mays); [13]): 0; Plant response rating, Corn (corn (Zea mays); [14]): 10; Plant response rating, Rice (rice (Oryza sativa); 62 g ai/ha): 0; Plant response rating, Rice (rice (Oryza sativa); 250 g ai/ha): 0; Plant response rating, Sedge, Umbrella ([8]; 62 g ai/ha): 40; Plant response rating, Sedge, Umbrella ([8]; 250 g ai/ha): 85; Plant response rating, Ducksalad ([9]; 62 g ai/ha): 0; Plant response rating, Ducksalad ([9]; 250 g ai/ha): 0; Plant response rating, Barnyardgrass ([10]; 62 g ai/ha): 0; Plant response rating, Barnyardgrass ([10]; 250 g ai/ha): 30
CCc1nn(-c2ccc(F)cc2)nc1Cn1ccc(C(F)(F)C(F)(F)F)n1 [Compound 10]	20	50	0	10	40	60	40	90	20	50	20	80	100	100	0	10	70	100	60	80	Velvetleaf plant response rating [6, 11]: 40; Velvetleaf plant response rating [6, 12]: 50; Plant response rating, Velvetleaf [6, 13]: 0; Plant response rating, Velvetleaf [6, 14]: 20; Wheat plant response rating [7, 11]: 0; Wheat plant response rating [7, 12]: 10; Plant response rating, Wheat [7, 13]: 0; Plant response rating, Wheat [7, 14]: 0; Corn plant response rating (corn (Zea mays); [11]): 20; Corn plant response rating (corn (Zea mays); [12]): 20; Plant response rating, Corn (corn (Zea mays); [13]): 0; Plant response rating, Corn (corn (Zea mays); [14]): 0; Plant response rating, Rice (rice (Oryza sativa); 62 g ai/ha): 0; Plant response rating, Rice (rice (Oryza sativa); 250 g ai/ha): 0; Plant response rating, Sedge, Umbrella ([8]; 62 g ai/ha): 0; Plant response rating, Sedge, Umbrella ([8]; 250 g ai/ha): 0; Plant response rating, Ducksalad ([9]; 62 g ai/ha): 0; Plant response rating, Ducksalad ([9]; 250 g ai/ha): 0; Plant response rating, Barnyardgrass ([10]; 62 g ai/ha): 0; Plant response rating, Barnyardgrass ([10]; 250 g ai/ha): 0
Cc1nn(-c2ccc(C(F)(F)F)cc2)nc1Cn1c(Cl)nc(C(F)(F)F)c1Cl [Compound 11]	0	0	0	0	0	0	0	0	0	0	0	0	0	0	0	0	0	20	0	0	Velvetleaf plant response rating [6, 11]: 0; Velvetleaf plant response rating [6, 12]: 0; Plant response rating, Velvetleaf [6, 13]: 0; Plant response rating, Velvetleaf [6, 14]: 0; Wheat plant response rating [7, 11]: 0; Wheat plant response rating [7, 12]: 0; Plant response rating, Wheat [7, 13]: 0; Plant response rating, Wheat [7, 14]: 0; Corn plant response rating (corn (Zea mays); [11]): 0; Corn plant response rating (corn (Zea mays); [12]): 0; Plant response rating, Corn (corn (Zea mays); [13]): 0; Plant response rating, Corn (corn (Zea mays); [14]): 0; Plant response rating, Rice (rice (Oryza sativa); 62 g ai/ha): 0; Plant response rating, Rice (rice (Oryza sativa); 250 g ai/ha): 0; Plant response rating, Sedge, Umbrella ([8]; 62 g ai/ha): 0; Plant response rating, Sedge, Umbrella ([8]; 250 g ai/ha): 0; Plant response rating, Ducksalad ([9]; 62 g ai/ha): 0; Plant response rating, Ducksalad ([9]; 250 g ai/ha): 0; Plant response rating, Barnyardgrass ([10]; 62 g ai/ha): 0; Plant response rating, Barnyardgrass ([10]; 250 g ai/ha): 0
